Test results from publication PMC3877196 (Toxicon : official journal of the International Society on …, 2013).
*1 amine or outer side, *2 acyl side, *3 side chain or, on linkers, in order; H or OH if unused. Where a SMILES comes first, the peptide text is derived from it. CO = O=C([*:1])[*:2]

Biological target: T1, IXOSP (Ixodes scapularis salivary serine protease) (Ixodes scapularis, UniProt Q4PMM2)
T1 sequence (Q4PMM2 51-273): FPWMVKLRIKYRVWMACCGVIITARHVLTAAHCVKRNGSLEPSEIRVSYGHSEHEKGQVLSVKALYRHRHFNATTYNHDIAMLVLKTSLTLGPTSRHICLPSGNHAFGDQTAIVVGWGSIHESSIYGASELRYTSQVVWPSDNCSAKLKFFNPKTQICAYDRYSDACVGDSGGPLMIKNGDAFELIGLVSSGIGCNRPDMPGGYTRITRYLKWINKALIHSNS
Experiment: amidolytic assay, pNA release at […] nm
Type: biochemical
Conditions: read-out: Inhibition of activity (% ± SD)

Compound `CC(C)[C@H](NC(=O)[C@H](CCCNC(=N)N)NC(=O)N[C@@H](Cc1ccccc1)C(=O)O)C(=O)N[C@H](C=O)CCCNC(=N)N` [Antipain] ({Phe-CO}-Arg-Val-Arg-aldehyde) has an inhibition at 30 µM of 55 ± 4%.
